Literature values, collected in patent publication US20070190090A1, “SIALAGOGUE BASED ORAL CARE PRODUCTS” (WhiteHill Oral Technologies, Inc., priority 2006, published 2007).

Experiments:
[1] = system: certain microorganisms (Gram positive and Gram negative bacteria); settings: toxicity varying for Gram positive and Gram negative bacteria
[2] = mice, orally

C/C=C/C=C\CC/C=C/C(=O)NCC(C)C [affinin, N-isobutyl-2E,6Z,8E-decatrienamide]
toxicity to certain microorganisms [1]: toxic
analgesic effect ([2]; doses from 2.5 to 10.0 mg/kg): analgesic effect
deaths ([2]; highest dose (10.0 mg/kg)): two out of five
effect on normal motor activity ([2]; highest dose (10.0 mg/kg)): severe depression of normal motor activity
